Measured values reported in patent US9833497B2, “Human originated EGF domain proteins and use of the same” (CHENGDU SOURCEBIO LIMITED-LIABILITY COMPANY, priority 2013, dated 2017).

Legend:
Format in all cases: cell-based
[1] = system: Klebsiella pneumonia; assay: MIC against Gram-negative bacteria: Klebsiella pneumonia; conditions: for MIC: K. pneumonia
Outline: (§1)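 Inocula prepared by growing LB cultures at 37° C to 0.5 McFarland, centrifuging at 4000×g, and resuspending in fresh medium. Final density 5×10^5 CFU/mL per well with two-fold dilutions of purified EGF domain protein; shaking incubation at 37° C.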

[2] = system: Proteus vulgaris; assay: MIC against Gram-negative bacteria: Proteus vulgaris; conditions: for MIC: P. vulgaris
Outline: as §1

[3] = system: Serratia marcescens; assay: MIC against Gram-negative bacteria: Serratia marcescens; conditions: for MIC: S. marcescens
Outline: as §1

[4] = system: Pseudomonas aeruginosa; assay: MIC against Gram-negative bacteria: Pseudomonas aeruginosa; conditions: for MIC: P. aeruginosa
Outline: as §1

[5] = system: Proteus mirabilis; assay: MIC against Gram-negative bacteria: Proteus mirabilis; conditions: for MIC: P. mirabilis
Outline: as §1

[6] = system: Enterobacter cloacae; assay: MIC against Gram-negative bacteria: Enterobacter cloacae; conditions: for MIC: E. cloacae
Outline: as §1

[7] = system: Moraxella catarrhalis; assay: MIC against Gram-negative bacteria: Moraxella catarrhalis; conditions: for MIC: M. catarrhalis
Outline: as §1

[8] = system: Citrobacter diversus; assay: MIC against Gram-negative bacteria: Citrobacter diversus; conditions: for MIC: C. diversus
Outline: as §1

[9] = system: E. coli DH5α; assay: Antibacterial activity: MIC and growth curve against E. coli DH5α in 96-well plate; conditions: minimal inhibitory concentration against E. coli DH5α; 96-well plate, 5×10^5 CFU/mL, 37° C., judged after 8 h
Outline: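 Log-phase DH5α (OD600 about 0.5, 37° C, 185 rpm in LB) was pelleted, resuspended in fresh LB and seeded at 5×10^5 CFU/mL with recombinant protein at 50, 25 and 12.5 μg/mL (two-fold series), in triplicate. Plates were shaken at 175 rpm, 37° C, and OD600 was read every 30 min. MIC was the lowest concentration with no growth.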

[10] = system: Aeromonas hydrophila; assay: MIC against Gram-negative bacteria: Aeromonas hydrophila; conditions: for MIC: A. hydrophila
Outline: as §1

[11] = system: E. coli BL21; assay: MIC against Gram-negative bacteria: E. coli BL21
Outline: as §1

[12] = Klebsiella pneumonia, 96-well plate, 5×10^5 CFU/mL, 37° C., 10 h
[13] = Proteus vulgaris, 96-well plate, 5×10^5 CFU/mL, 37° C., 10 h
[14] = Serratia marcescens, 96-well plate, 5×10^5 CFU/mL, 37° C., 10 h
[15] = Pseudomonas aeruginosa, 96-well plate, 5×10^5 CFU/mL, 37° C., 10 h
[16] = Proteus mirabilis, 96-well plate, 5×10^5 CFU/mL, 37° C., 10 h
[17] = Enterobacter cloacae, 96-well plate, 5×10^5 CFU/mL, 37° C., 10 h
[18] = Moraxella catarrhalis, 96-well plate, 5×10^5 CFU/mL, 37° C., 10 h
[19] = Citrobacter diversus, 96-well plate, 5×10^5 CFU/mL, 37° C., 10 h
[20] = Aeromonas hydrophila, 96-well plate, 5×10^5 CFU/mL, 37° C., 10 h
[21] = E. coli BL21, 96-well plate, 5×10^5 CFU/mL, 37° C., 10 h
[22] = 96-well plate, 5×10^5 CFU/mL, 37° C., 10 h
[23] = 10 h cultivation at 37° C., 5×10^5 CFU/mL
[24] = 10 h cultivation at 37° C., 5×10^5 CFU/mL, two-fold serial dilution

PRT1240 (WGPDCRESCPCHPHGQCEPATGACQCQADRWGARCE; listed as Homo sapiens)
MIC against K. pneumonia [1, 12]: 12.5 µg/mL | MIC against P. vulgaris [2, 13]: 12.5 µg/mL | MIC against S. marcescens [3, 14]: 25 µg/mL | MIC against P. aeruginosa [4, 15]: 12.5 µg/mL | MIC against P. mirabilis [5, 16]: 25 µg/mL | MIC against E. cloacae [6, 17]: 25 µg/mL | MIC against M. catarrhalis [7, 18]: 50 µg/mL | MIC against C. diversus [8, 19]: 25 µg/mL | MIC [9]: 12.5 µg/mL | MIC against A. hydrophila [10, 20]: 12.5 µg/mL | MIC against E. coli BL21 [11, 21]: 50 µg/mL

PRT978 (DVDECASQPCQHGGSCIDLVARYLCSCPPGTLGVLCE; listed as Homo sapiens)
MIC ([1]; 10 h cultivation at 37° C.): 50 µg/mL | MIC ([2]; 10 h cultivation at 37° C.): 50 µg/mL | MIC ([3]; 10 h cultivation at 37° C.): 12.5 µg/mL | MIC ([4]; 10 h cultivation at 37° C.): 12.5 µg/mL | MIC ([5]; 10 h cultivation at 37° C.): 25 µg/mL | MIC ([6]; 10 h cultivation at 37° C.): 12.5 µg/mL | MIC ([7]; 10 h cultivation at 37° C.): 12.5 µg/mL | MIC ([8]; 10 h cultivation at 37° C.): 50 µg/mL | MIC [9]: 12.5 µg/mL | MIC ([10]; 10 h cultivation at 37° C.): 25 µg/mL | MIC ([11]; E. coli BL21, 10 h cultivation at 37° C.): 50 µg/mL

PRT528 (CSCNSNGQLGSCHPLTGDCINQEPKDSSPAEECDD; listed as Homo sapiens)
MIC against K. pneumonia [1, 22]: 25 µg/mL | MIC against P. vulgaris [2, 22]: 25 µg/mL | MIC against S. marcescens [3, 22]: 50 µg/mL | MIC against P. aeruginosa [4, 22]: 50 µg/mL | MIC against P. mirabilis [5, 22]: 12.5 µg/mL | MIC against E. cloacae [6, 22]: 12.5 µg/mL | MIC against M. catarrhalis [7, 22]: 25 µg/mL | MIC against C. diversus [8, 22]: 50 µg/mL | MIC [9]: 12.5 µg/mL | MIC against A. hydrophila [10, 22]: 25 µg/mL | MIC against E. coli BL21 [11, 22]: 25 µg/mL

PRT736 (DVNECAEEGYCSQGCTNSEGAFQCWCETGYELRPDRRSCK; listed as Homo sapiens)
MIC K. pneumonia [1, 22]: 50 µg/mL | MIC P. vulgaris [2, 22]: 25 µg/mL | MIC S. marcescens [3, 22]: 50 µg/mL | MIC P. aeruginosa [4, 22]: 50 µg/mL | MIC P. mirabilis [5, 22]: 12.5 µg/mL | MIC E. cloacae [6, 22]: 50 µg/mL | MIC M. catarrhalis [7, 22]: 25 µg/mL | MIC C. diversus [8, 22]: 12.5 µg/mL | MIC [9]: 12.5 µg/mL | MIC A. hydrophila [10, 22]: 25 µg/mL | MIC E. coli BL21 [11, 22]: 25 µg/mL

PRT1242 (WGPECQQQCECVRGRCSAASGECTCPPGFRGARCE; listed as Homo sapiens)
MIC against K. pneumonia [1, 12]: 12.5 µg/mL | MIC against P. vulgaris [2, 13]: 25 µg/mL | MIC against S. marcescens [3, 14]: 50 µg/mL | MIC against P. aeruginosa [4, 15]: 25 µg/mL | MIC against P. mirabilis [5, 16]: 12.5 µg/mL | MIC against E. cloacae [6, 17]: 25 µg/mL | MIC against M. catarrhalis [7, 18]: 25 µg/mL | MIC against C. diversus [8, 19]: 50 µg/mL | MIC [9]: 25 µg/mL | MIC against A. hydrophila [10, 20]: 25 µg/mL | MIC against E. coli BL21 [11, 21]: 50 µg/mL

PRT435 (DMDECSFSEFLCQHECVNQPGTYFCSCPPGYILLDDNRSCQ; listed as Homo sapiens)
MIC [1, 23]: 25 µg/mL | MIC [2, 23]: 25 µg/mL | MIC [3, 23]: 50 µg/mL | MIC [4, 23]: 12.5 µg/mL | MIC [5, 23]: 12.5 µg/mL | MIC [6, 23]: 12.5 µg/mL | MIC [7, 23]: 25 µg/mL | MIC [8, 23]: 12.5 µg/mL | MIC [9]: 12.5 µg/mL | MIC [10, 23]: 25 µg/mL | MIC ([11]; E. coli BL21, 10 h cultivation at 37° C., 5×10^5 CFU/mL): 25 µg/mL

PRT1130 (DDCSSHCDLAHGCCAPDGSCRCDPGWEGLHCE; listed as Homo sapiens)
MIC K. pneumonia [1, 24]: 12.5 µg/mL | MIC P. vulgaris [2, 24]: 12.5 µg/mL | MIC S. marcescens [3, 24]: 25 µg/mL | MIC P. aeruginosa [4, 24]: 50 µg/mL | MIC P. mirabilis [5, 24]: 25 µg/mL | MIC E. cloacae [6, 24]: 50 µg/mL | MIC M. catarrhalis [7, 24]: 50 µg/mL | MIC C. diversus [8, 24]: 25 µg/mL | MIC [9]: 12.5 µg/mL | MIC A. hydrophila [10, 24]: 12.5 µg/mL | MIC E. coli BL21 [11, 24]: 12.5 µg/mL
